Test results taken from ChEMBL document CHEMBL5579897, “Design, Synthesis, and Bioevaluation of Novel NLRP3 Inhibitor with IBD Immunotherapy from the Virtual Screen” (J Med Chem, 2024).
The source made the active and inactive calls. The rule behind the calls is not given here.

Legend:
Mus musculus [1] = assay: (§1) Antiinflammatory activity in male wild type C57BL/6 mouse model of DSS-induced ulcerative colitis assessed as reduction in IL-1beta level in colon at 5 to 20 mg/kg, po administered for 10 days with subsequent treatment of DSS for 7 days followed by normal drinking water for 3 days by immunoblot analysis; type: functional, organism-based; conditions: dose 5-20 mg/kg, time 10.0 day
Mus musculus [2] = assay: as §1, with “crypt loss” for “IL-1beta level in colon”, “H and E staining based” for “immunoblot”; type: functional, organism-based; conditions: dose 5-20 mg/kg, time 10.0 day
Mus musculus [3] = assay: Antiinflammatory activity in male NLRP3 knockout C57BL/6 mouse model of DSS-induced ulcerative colitis assessed as reduction in IL-1beta level in colon at 20 mg/kg, po administered for 10 days with subsequent treatment of DSS in drinking water by immunohistochemistry analysis; type: functional, organism-based; conditions: time 10.0 day
BMDM [4] = assay: Effect on LPS/nigericin induced NLRP3 intracellular expression in M-CSF induced C57BL/6 mouse BMDM cells at 0.5 to 20 uM preincubated with LPS for 4 hrs followed by compound addition for 30 mins and further incubated with nigericin for 30 mins by Western blot analysis; type: functional, cell-based; conditions: dose 0.5-20 µM, time 60.0 min
THP-1 [5] = assay: Cytotoxicity against PMA-differentiated human THP-1 cells assessed as reduction in cell viability at 0.5 to 100 uM measured after 24 hrs by MTT assay; type: toxicity, cell-based; conditions: thp-1, 24 h, dose 0.5-100 µM
[6] = AUC (0 to infinity) in male C57BL/6J mouse at 5 mg/kg, po administered as single dose and measured over 24 hrs by LC-MS/MS analysis; type: ADME, organism-based; conditions: in vivo
[7] = Volume of distribution in male C57BL/6J mouse at 5 mg/kg, iv administered as single dose and measured over 24 hrs by LC-MS/MS analysis; type: ADME, organism-based; conditions: in vivo
[8] = AUC (0 to t) in male C57BL/6J mouse at 5 mg/kg, iv administered as single dose and measured over 24 hrs by LC-MS/MS analysis; type: ADME, organism-based; conditions: in vivo
[9] = Cmax in male C57BL/6J mouse at 5 mg/kg, po administered as single dose and measured over 24 hrs by LC-MS/MS analysis; type: ADME, organism-based; conditions: in vivo
Mus musculus [10] = assay: as §1, with “NLRP3” for “IL-1beta”; type: functional, organism-based; conditions: dose 5-20 mg/kg, time 10.0 day
[11] = Oral bioavailability in male C57BL/6J mouse at 5 mg/kg administered as single dose and measured over 24 hrs by LC-MS/MS analysis; type: ADME, organism-based; conditions: in vivo
THP-1 [12] = assay: Effect on LPS/nigericin induced intracellular pro-IL-1beta protein expression in PMA-differentiated human THP-1 cell lysate at 0.5 to 20 uM pretreated with compound followed by LPS stimulation for 4 hrs and further stimulated with nigericin by Western blot analysis; type: functional, subcellular; conditions: dose 0.5-20 µM
Mus musculus [13] = assay: Antiinflammatory activity in male wild type C57BL/6 mouse model of DSS-induced ulcerative colitis assessed as reduction in IL-1beta level in plasma at 5 to 20 mg/kg, po administered for 10 days with subsequent treatment of DSS for 7 days followed by normal drinking water for 3 days by ELISA; type: functional, organism-based; conditions: dose 5-20 mg/kg, time 10.0 day
Mus musculus [14] = assay: (§2) Antiinflammatory activity in male wild type C57BL/6 mouse model of DSS-induced ulcerative colitis assessed as reduction in colon shortening at 5 to 20 mg/kg, po administered for 10 days with subsequent treatment of DSS for 7 days followed by normal drinking water for 3 days; type: functional, organism-based; conditions: dose 5-20 mg/kg, time 10.0 day
Mus musculus [15] = assay: as §2, with “reduction in inflammatory cell infiltration at 5” for “reduction in colon shortening at 5”, “3 days by H and E staining based analysis” for “3 days”; type: functional, organism-based; conditions: dose 5-20 mg/kg, time 10.0 day
Mus musculus [16] = assay: Antiinflammatory activity in male NLRP3 knockout C57BL/6 mouse model of DSS-induced ulcerative colitis assessed as reduction in body weight loss at 20 mg/kg, po administered for 10 days with subsequent treatment of DSS in drinking water; type: functional, organism-based; conditions: time 10.0 day
BMDM [17] = assay: Effect on LPS/nigericin induced ASC intracellular expression in M-CSF induced C57BL/6 mouse BMDM cells at 0.5 to 20 uM preincubated with LPS for 4 hrs followed by compound addition for 30 mins and further incubated with nigericin for 30 mins by Western blot analysis; type: functional, cell-based; conditions: dose 0.5-20 µM, time 60.0 min
[18] = AUC (0 to t) in male C57BL/6J mouse at 5 mg/kg, po administered as single dose and measured over 24 hrs by LC-MS/MS analysis; type: ADME, organism-based; conditions: in vivo
THP-1 [19] = assay: Effect on LPS/nigericin induced caspase-1 mRNA expression in PMA-differentiated human THP-1 cells at 1 to 20 uM pretreated with compound followed by LPS stimulation for 4 hrs and further stimulated with nigericin by RT-PCR analysis; type: functional, cell-based; conditions: dose 1-20 µM
THP-1 [20] = assay: Inhibition of NLRP3-NEK7 interaction in LPS/nigericin induced PMA-differentiated human THP-1 cells at 5 uM preincubated with LPS for 4 hrs followed by compound addition for 30 mins and further incubated with nigericin for 30 mins by Co-immunoprecipitation analysis; type: cell-based; conditions: time 60.0 min
THP-1 [21] = assay: Inhibition of NLRP3-ASC interaction in LPS/nigericin induced PMA-differentiated human THP-1 cells at 5 uM preincubated with LPS for 4 hrs followed by compound addition for 30 mins and further incubated with nigericin for 30 mins by Co-immunoprecipitation analysis; type: cell-based; conditions: time 60.0 min
THP-1 [22] = assay: Effect on LPS/nigericin induced intracellular NLRP3 protein expression in PMA-differentiated human THP-1 cell lysate at 0.5 to 20 uM pretreated with compound followed by LPS stimulation for 4 hrs and further stimulated with nigericin by Western blot analysis; type: functional, subcellular; conditions: dose 0.5-20 µM
THP-1 [23] = assay: Inhibition of NF-kappaB pathway in PMA-differentiated human THP-1 cells assessed as inhibition of LPS/nigericin induced TNF-alpha production at 0.5 to 20 uM pretreated with compound followed by LPS stimulation for 4 hrs and further stimulated with nigericin by ELISA; type: cell-based; conditions: dose 0.5-20 µM
THP-1 [24] = assay: Effect on LPS/nigericin induced intracellular pro-caspase-1 protein expression in PMA-differentiated human THP-1 cell lysate at 0.5 to 20 uM pretreated with compound followed by LPS stimulation for 4 hrs and further stimulated with nigericin by Western blot analysis; type: functional, subcellular; conditions: dose 0.5-20 µM
Mus musculus [25] = assay: as §1, with “NLRP3” for “IL-1beta”, “immunohistochemistry” for “immunoblot”; type: functional, organism-based; conditions: dose 5-20 mg/kg, time 10.0 day
Mus musculus [26] = assay: Antiinflammatory activity in male NLRP3 knockout C57BL/6 mouse model of DSS-induced ulcerative colitis assessed as reduction in colon shortening at 20 mg/kg, po administered for 10 days with subsequent treatment of DSS in drinking water; type: functional, organism-based; conditions: time 10.0 day
[27] = Volume of distribution at steady state in male C57BL/6J mouse at 5 mg/kg, iv administered as single dose and measured over 24 hrs by LC-MS/MS analysis; type: ADME, organism-based; conditions: in vivo, read-out: Vdss
Mus musculus [28] = assay: as §1, with “immunohistochemistry” for “immunoblot”; type: functional, organism-based; conditions: dose 5-20 mg/kg, time 10.0 day
[29] = AUC (0 to infinity) in male C57BL/6J mouse at 5 mg/kg, iv administered as single dose and measured over 24 hrs by LC-MS/MS analysis; type: ADME, organism-based; conditions: in vivo

- AUC(0-inf) [6]: 371 ng·h/mL
- Vd [7]: 5.76 L/kg
- AUC(0-t) at 24 h [8]: 2220 ng·h/mL
- Cmax [9]: 358 ng/mL
- bioavailability [11]: 16.7%
- AUC(0-t) at 24 h [18]: 266 ng·h/mL
- Vd [27]: 1.4 L/kg
- AUC(0-inf) [29]: 2230 ng·h/mL
Compound: COc1ccccc1CCNC(=O)/C(=C/c1ccc(Br)cc1)CS(=O)(=O)CCC#N
- Activity (Mus musculus [1]): Active
- Activity (Mus musculus [2]): Active
- Activity (Mus musculus [3]): inactive
- Activity (BMDM [4]): inactive
- Activity (THP-1 [5]): Non-Toxic
- Activity (Mus musculus [10]): Active
- Activity (THP-1 [12]): inactive
- Activity (Mus musculus [13]): Active
- Activity (Mus musculus [14]): Active
- Activity (Mus musculus [15]): Active
- Activity (Mus musculus [16]): inactive
- Activity (BMDM [17]): inactive
- Activity (THP-1 [19]): inactive
- inhibition (THP-1 [20]): Active
- inhibition (THP-1 [21]): Active
- Activity (THP-1 [22]): inactive
- inhibition (THP-1 [23]): inactive
- Activity (THP-1 [24]): inactive
- Activity (Mus musculus [25]): Active
- Activity (Mus musculus [26]): inactive
- Activity (Mus musculus [28]): Active
